Assay results reported in patent US20230416329A1, “A PEPTIDE WITH DISULFIDE BONDS AND INHIBITORY ACTIVITY AGAINST SERINE PROTEASES, DERIVED HYBRID PEPTIDES THEREOF, AND USES THEREOF” (INSTITUTE OF MATERIA MEDICA , CHINESE ACADEMY OF MEDICAL …, priority 2020, published 2023).
Where two headings read alike, the source gives them in different places. One block for each molecule: values may come before it. Bridge positions count the residues as written; N and C are the ends. Peptide text beside a SMILES is read from it.

Target: T1, bovine trypsin (Bos taurus, UniProt P00760)
T1 sequence (P00760 24-246): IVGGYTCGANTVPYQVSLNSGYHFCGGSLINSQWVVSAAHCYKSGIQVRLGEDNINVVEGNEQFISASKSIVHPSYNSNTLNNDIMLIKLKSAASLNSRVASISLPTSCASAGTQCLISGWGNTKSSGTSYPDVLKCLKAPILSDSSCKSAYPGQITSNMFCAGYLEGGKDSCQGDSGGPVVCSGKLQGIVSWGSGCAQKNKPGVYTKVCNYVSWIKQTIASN
Assay: Trypsin inhibitory activity of peptides (BApNA hydrolysis, OD405; IC50, Ki, residual activity)
Type: biochemical
Method: The substrates N-succinyl-Ala-Ala-Pro-Phe-p-nitroaniline (AAPFpNA), Nα—Benzoyl-L-arginine-4-nitroaniline hydrochloride (BApNA) and N-succinyl-[…] (AAApNA) are used in competitive binding reaction to determine the inhibitory activities against α-chymotrypsin, bovine trypsin, and porcine pancreatic elastase, respectively. Experiments for α-chymotrypsin and bovine trypsin inhibition were measured in 20 mM CaCl2, 50 mM Tris-HCl buffer (pH 7.8), and that for porcine elastase inhibition was measured in 50 mM Tris-HCl buffer (pH 8.0). The concentration of the peptide was measured using optical density (OD) at 280 nm. The Michaelis constant (Km) of the enzyme hydrolysis substrate is calculated from the initial rate of substrate hydrolysis at 405 nm. The absorbance value of the substrate was measured at 405 nm after complete hydrolysis. All data were processed using nonlinear regression.
• (1) Added 200 μL of reaction buffer (20 mM CaCl2 and 50 mM Tris-HCl, pH 7.8) into the 96-well plate, and preheated at 37° C. for 15 min. Then added 5 μL of different concentrations of substrates (p-Nitroanilide, pNA, 0.5% in DMSO), and mixed by centrifugation at 500 rpm for 1 min. […] The experiment was performed in triplicate. The standard curve was obtained by plotting the OD405 nm value with pNA concentration. • (2) Added 190 μL of reaction buffer (20 mM CaCl2 and 50 mM Tris-HCl, pH 7.8) and 10 μL of 1 μM trypsin into the 96-well plate, and preheated at 37° C. for 15 min. Then added 5 μL of different concentrations of substrates (BApNA, 0.5% in DMSO) and mixed by centrifugation at 500 rpm for 1 min. […] The experiment was performed in triplicate. The corresponding curve was obtained by plotting the OD405 nm value with time. Divided the slope of the curve by the slope of the standard curve and the enzyme concentration to obtain the initial velocity V0 (mM/(min*mM protein). Plotted the initial velocity V0 with the concentration of substrate BApNA using Prism software, and the Michaelis constant Km value of trypsin hydrolyzing BApNA was obtained.
• (1) Added a total 190 μL of reaction buffer (20 mM CaCl2 and 50 mM Tris-HCl, pH 7.8) along with different concentrations of anti-trypsin peptides (BTs) into the pre-cooled 96-well plate, followed by preheating at 37° C., and spined down at 500 rpm for 5 min. Next added 10 μL of 1 μM trypsin, incubated at 37° C., and then spined down at 500 rpm for 10 min. Finally, added 5 μL of 50 mM BApNA, and mixed by centrifugation at 500 rpm for 1 min. The plate was incubated at 37° C. for 260 min, and the absorbance value at 405 nm was measured. The experiment was performed in triplicate. The blank control only contained the reaction buffer and the substrate as the minimum absorption value (Min OD405 nm). The negative control only contained the reaction buffer, the enzyme and the substrate as the maximum absorption value (Max OD405 nm). • (2) In the reaction system of 205 μL, the final concentrations of trypsin and BApNA were 50 nM and 1.22 mM, respectively. • (3) Data statistics
Residual activity of the enzyme (%)=(1−(Max OD405 nm−Sample OD405 nm)/(Max OD405 nm−Min OD405 nm))*100
Plotted the residual activity of the enzyme with […] to obtain the half inhibitory concentration (IC50) of BTs scaffold against trypsin. Then, substituted it into the formula Ki=IC50/(1+S/Km) (S, IC50 and Km were substrate concentration, half inhibitory concentration and Michaelis constant, respectively) to obtain the inhibition constant Ki of BTs scaffold against trypsin.

[1] = Ki=IC50/(1+S/Km), Km 0.33 mM, read-out: Ki

- inhibitory activity against trypsin (in words): excellent trypsin inhibitory activities
- Residual trypsin activity (peptide 0.00098 μM): 99.7 ± 0.6%
- Residual trypsin activity (peptide 0.00488 μM): 99.8 ± 1.8%
- Residual trypsin activity (peptide 0.0098 μM): 95.5 ± 1.1%
- Residual trypsin activity (peptide 0.098 μM): 55.6 ± 2.3%
- Residual trypsin activity (peptide 0.195 μM): 17.2 ± 3.4%
- Residual trypsin activity (peptide 0.488 μM): 1.0 ± 0.1%
- Residual trypsin activity (peptide 0.7317 μM): 0.2 ± 0.1%
- Residual trypsin activity (peptide 0.98 μM): −0.1 ± 0.1%
- Ki (read-out: inhibition constant (Ki) towards trypsin): 0.02 µM
- IC50 (trypsin 50 nM, BApNA 1.22 mM, read-out: IC50): 0.11 µM
SMILES: CC[C@H](C)[C@@H]1NC(=O)[C@H](C)NC(=O)[C@@H]2CCCN2C(=O)[C@H]([C@@H](C)CC)NC(=O)[C@H](CO)NC(=O)[C@H](CCCCN)NC(=O)[C@H]([C@@H](C)O)NC(=O)[C@H](C)NC(=O)[C@H](CCCNC(=N)N)NC(=O)CNC(=O)[C@@H](N)CSSC[C@@H](C(=O)N[C@@H](Cc2ccccc2)C(=O)O)NC1=O [BT10] (H-CGRATKSIPAICF-OH; disulfide 1-12)

SMILES: CC[C@H](C)[C@@H]1NC(=O)[C@@H]2CCCN2C(=O)[C@@H]2CCCN2C(=O)[C@H]([C@@H](C)CC)NC(=O)[C@H](CO)NC(=O)[C@H](CCCCN)NC(=O)[C@H]([C@@H](C)O)NC(=O)[C@H](C)NC(=O)[C@H](CCCNC(=N)N)NC(=O)CNC(=O)[C@@H](N)CSSC[C@@H](C(=O)O)NC(=O)[C@H](Cc2ccccc2)NC(=O)[C@H](C)NC1=O [BT11] (H-CGRATKSIPPIAFC-OH; disulfide 1-14; N-terminus and C-terminus assumed)
- inhibitory activity against trypsin (in words): still maintained good inhibitory activity against trypsin
- Residual trypsin activity (peptide 0.488 μM): 100.2 ± 3.7%
- Residual trypsin activity (peptide 0.7317 μM): 102.4 ± 4.2%
- Residual trypsin activity (peptide 0.98 μM): 101.5 ± 5.1%
- Residual trypsin activity (peptide 1.561 μM): 79.3 ± 1.0%
- Residual trypsin activity (peptide 1.95 μM): 75.8 ± 4.6%
- Residual trypsin activity (peptide 2.93 μM): 6.2 ± 3.1%
- Residual trypsin activity (peptide 3.90 μM): 4.1 ± 1.0%
- Residual trypsin activity (peptide 4.88 μM): 1.4 ± 0.3%

- Residual trypsin activity (peptide 0.0488 μM): 100.5 ± 2.0%
- Residual trypsin activity (peptide 0.2439 μM): 106.5 ± 3.4%
- Residual trypsin activity (peptide 0.98 μM): 107.9 ± 1.4%
- Residual trypsin activity (peptide 3.90 μM): 68.3 ± 0.1%
- Residual trypsin activity (peptide 5.85 μM): 24.0 ± 1.2%
- Residual trypsin activity (peptide 9.76 μM): 0.7 ± 0.1%
- Residual trypsin activity (peptide 14.63 μM): 0.3 ± 0.1%
- Residual trypsin activity (peptide 19.51 μM): −0.2 ± 0.1%
SMILES: CC[C@H](C)[C@@H]1NC(=O)[C@H](CO)NC(=O)[C@H](CCCCN)NC(=O)[C@H]([C@@H](C)O)NC(=O)[C@H](C)NC(=O)[C@H](CCCNC(=N)N)NC(=O)CNC(=O)[C@@H](N)CSSC[C@@H](C(=O)N[C@@H](Cc2ccc(O)cc2)C(=O)O)NC(=O)[C@H](CCC(N)=O)NC(=O)[C@@H]2CCCN2C(=O)[C@@H]2CCCN2C1=O [BT12] (H-CGRATKSIPPQCY-OH; disulfide 1-12; N-terminus and C-terminus assumed)
- inhibitory activity against trypsin (in words): significant impact on their anti-trypsisn activities

SMILES: CC[C@H](C)[C@@H]1NC(=O)[C@@H]2CCCN2C(=O)[C@@H]2CCCN2C(=O)[C@H]([C@@H](C)CC)NC(=O)[C@H](CO)NC(=O)[C@H](CCCCN)NC(=O)[C@H]([C@@H](C)O)NC(=O)[C@H](C)NC(=O)[C@H](CCCNC(=N)N)NC(=O)CNC(=O)[C@@H](N)CSSC[C@@H](C(=O)O)NC(=O)[C@H](C)NC1=O [BT13] (H-CGRATKSIPPIAC-OH; disulfide 1-13; N-terminus and C-terminus assumed)
- inhibitory activity against trypsin (in words): still maintained good inhibitory activity against trypsin

- inhibitory activity against trypsin (in words): reduced their anti-trypsin activities
SMILES: CC(C)C[C@@H]1NC(=O)[C@H](CO)NC(=O)[C@H](CCCCN)NC(=O)[C@H]([C@@H](C)O)NC(=O)[C@H](C)NC(=O)[C@H](CCCNC(=N)N)NC(=O)CNC(=O)[C@@H](N)CSSC[C@@H](C(=O)N[C@@H](Cc2ccccc2)C(=O)O)NC(=O)[C@H](C)NC(=O)[C@@H]2CCCN2C(=O)[C@@H]2CCCN2C1=O [BT14] (H-CGRATKSLPPACF-OH; disulfide 1-12; N-terminus and C-terminus assumed)

SMILES: CC[C@H](C)[C@@H]1NC(=O)[C@H](CO)NC(=O)[C@H](CCCNC(=N)N)NC(=O)[C@H]([C@@H](C)O)NC(=O)[C@H](C)NC(=O)[C@H](CCCNC(=N)N)NC(=O)CNC(=O)[C@@H](N)CSSC[C@@H](C(=O)N[C@@H](Cc2ccccc2)C(=O)O)NC(=O)[C@H](C)NC(=O)[C@@H]2CCCN2C(=O)[C@@H]2CCCN2C1=O [BT15] (H-CGRATRSIPPACF-OH; disulfide 1-12; N-terminus and C-terminus assumed)
- inhibitory activity against trypsin (in words): significant impact on their anti-trypsisn activities

- inhibitory activity against trypsin (in words): reduced their anti-trypsin activities
- Ki [1]: 0.19 µM
- inhibitory activity against trypsin (in words) (listed as SEQ ID NO: 16): excellent trypsin inhibitory activities
- Residual trypsin activity (peptide 0.00488 μM): 95.4 ± 4.3%
- Residual trypsin activity (peptide 0.0098 μM): 96.1 ± 0.6%
- Residual trypsin activity (peptide 0.0195 μM): 101.7 ± 1.2%
- Residual trypsin activity (peptide 0.390 μM): 88.4 ± 2.0%
- Residual trypsin activity (peptide 0.780 μM): 59.7 ± 3.2%
- Residual trypsin activity (peptide 0.98 μM): 42.2 ± 3.3%
- Residual trypsin activity (peptide 2.439 μM): 0.8 ± 0.1%
- Residual trypsin activity (peptide 4.88 μM): 0.0 ± 0.2%
SMILES: CC[C@H](C)[C@@H]1NC(=O)[C@H](C)NC(=O)[C@@H]2CCCN2C(=O)[C@H](CC(C)C)NC(=O)[C@H](CO)NC(=O)[C@H](CCCCN)NC(=O)[C@H]([C@@H](C)O)NC(=O)[C@H](C)NC(=O)[C@H](CCCNC(=N)N)NC(=O)CNC(=O)[C@@H](N)CSSC[C@@H](C(=O)N[C@@H](Cc2ccccc2)C(=O)O)NC1=O [BT16] (H-CGRATKSLPAICF-OH; disulfide 1-12; C-terminus assumed)

- inhibitory activity against trypsin (in words): excellent trypsin inhibitory activities
- Ki [1]: 0.12 µM
- Residual trypsin activity (peptide 0.00098 μM): 97.9 ± 0.8%
- Residual trypsin activity (peptide 0.0098 μM): 97.5 ± 0.7%
- Residual trypsin activity (peptide 0.098 μM): 93.6 ± 4.5%
- Residual trypsin activity (peptide 0.488 μM): 61.9 ± 3.0%
- Residual trypsin activity (peptide 0.7317 μM): 30.0 ± 5.3%
- Residual trypsin activity (peptide 0.98 μM): 1.5 ± 0.3%
- Residual trypsin activity (peptide 9.76 μM): 0.1 ± 0.0%
- Residual trypsin activity (peptide 97.56 μM): 0.1 ± 0.0%
- decrease in inhibitory activity compared to BT9 (trypsin): ~12 fold
SMILES: CC[C@H](C)[C@@H]1NC(=O)[C@@H]2CCCN2C(=O)[C@@H]2CCCN2C(=O)[C@H]([C@@H](C)CC)NC(=O)[C@H](CO)NC(=O)[C@H](CCCNC(=N)N)NC(=O)[C@H]([C@@H](C)O)NC(=O)[C@H](C)NC(=O)[C@H](CCCNC(=N)N)NC(=O)CNC(=O)[C@@H](N)CSSC[C@@H](C(=O)N[C@@H](Cc2ccccc2)C(=O)O)NC1=O [BT17] (H-CGRATRSIPPICF-OH; disulfide 1-12; C-terminus assumed)

SMILES: CC[C@H](C)[C@@H]1NC(=O)[C@@H]2CCCN2C(=O)[C@@H]2CCCN2C(=O)[C@H]([C@@H](C)CC)NC(=O)[C@H](CO)NC(=O)[C@H](CCCNC(=N)N)NC(=O)[C@H]([C@@H](C)O)NC(=O)[C@H](C)NC(=O)[C@H](CCCNC(=N)N)NC(=O)CNC(=O)[C@@H](N)CSSC[C@@H](C(=O)N[C@@H](Cc2ccc(O)cc2)C(=O)O)NC1=O [BT18] (H-CGRATRSIPPICY-OH; disulfide 1-12; N-terminus and C-terminus assumed)
- inhibitory activity against trypsin (in words): significant impact on their anti-trypsisn activities
